Source: the supplement of paper PMC11061612

Columns and labels:
NCI-H2722 (Mesothelioma) = assay: combination Emax (second highest fraction inhibited in the dose matrix, 72 h); higher = more inhibition; extreme values may be limits of the assay
Procedure, shortened: (§1)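 After 24 hours at 37°C and 5% CO2 in 1536-well plates, cells in DMEM/F12 or RPMI plus 10% FBS received two-drug dose matrices for 72 hours. Viability came from CellTiter-Glo 2.0 luminescence and was scaled as inhibition, anchored at 0 by vehicle wells and at 1 by blank wells. Combination Emax is taken as the second-highest inhibition in the matrix, and Bliss excess as the observed combination effect less EA + EB − EA·EB, with EA and EB the single-agent effects.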

A673 (Ewing's Sarcoma) = assay: as above
Procedure, shortened: as §1

[1] = system: LS-123 (Colorectal Carcinoma); assay: as above
Procedure, shortened: as §1

[2] = system: NCI-H1568 (Lung Adenocarcinoma); assay: as above
Procedure, shortened: as §1

[3] = system: OVCAR-5 (Ovarian Carcinoma); assay: as above
Procedure, shortened: as §1

[4] = system: OE21 (Esophageal Squamous Cell Carcinoma); assay: as above
Procedure, shortened: as §1

LOXIMVI (Melanoma) = assay: as above
Procedure, shortened: as §1

[5] = system: NCI-H720 (Other Solid Carcinomas); assay: as above
Procedure, shortened: as §1

[6] = system: OV-56 (Ovarian Carcinoma); assay: as above
Procedure, shortened: as §1

GAMG (Glioblastoma) = assay: as above
Procedure, shortened: as §1

[7] = system: NCI-H524 (Small Cell Lung Carcinoma); assay: as above
Procedure, shortened: as §1

[8] = system: NCI-H720 (Other Solid Carcinomas); assay: Bliss excess, mean over the matrix (fraction); higher = more synergy
Procedure, shortened: as §1
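Throughout, for Bliss excess, mean over the matrix: after 72 h of two-drug dosing.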

| SMILES | combination Emax (NCI-H2722 (Mesothelioma)) | combination Emax (A673 (Ewing's Sarcoma)) | combination Emax [1] | combination Emax [2] | combination Emax [3] | combination Emax [4] | combination Emax (LOXIMVI (Melanoma)) | combination Emax [5] | combination Emax [6] | combination Emax (GAMG (Glioblastoma)) | combination Emax [7] | Bliss excess [8] |
| --- | --- | --- | --- | --- | --- | --- | --- | --- | --- | --- | --- | --- |
| CCc1c2c(nc3ccc(O)cc13)-c1cc3c(c(=O)n1C2)COC(=O)[C@]3(O)CC [SN-38] + CN(C)CCCOc1ccc(-c2ccc3ncc4c(c3c2)n(C2CCOCC2)c(=O)n4C)cn1 [AZD0156] (first compound max 0.3 µM, 7x7, partner max 1 µM) | 0.301 | 0.996 | 0.481 | 0.474 | 0.567 | 0.678 | 0.784 | 0.397 | 0.88 | 0.737 | 0.608 | 0.035 |
| COc1cccc(OCCCN)c1-c1cc(Nc2cnc(C#N)cn2)n[nH]1 [Prexasertib] + C[C@@H]1COCCN1C2=NC(=NC(=C2)C3(CC3)[S@](=N)(=O)C)C4=C5C=CNC5=NC=C4 [AZD6738] (first compound max 1 µM, 7x7, partner max 10 µM) | 0.304 | 0.883 | 0.796 | 0.526 | 0.817 | 0.745 | 0.849 | 0.697 | 0.916 | 0.874 | 0.998 | -0.0325 |
| C[C@@H]1COCCN1c1cc(C2([S@](C)(=N)=O)CC2)nc(-c2ccnc3[nH]ccc23)n1 [AZD6738] + O=C(c1cc(Cc2n[nH]c(=O)c3ccccc23)ccc1F)N1CCN(C(=O)C2CC2)CC1 [Olaparib] (first compound max 10 µM, 7x7, partner max 10 µM) | 0.292 | 0.89 | 0.764 | 0.416 | 0.515 | 0.661 | 0.978 | 0.687 | 0.69 | 0.388 | 0.746 | -0.0398 |
| C=CCn1c(=O)c2cnc(Nc3ccc(N4CCN(C)CC4)cc3)nc2n1-c1cccc(C(C)(C)O)n1 [AZD1775] + O=C(c1cc(Cc2n[nH]c(=O)c3ccccc23)ccc1F)N1CCN(C(=O)C2CC2)CC1 [Olaparib] (first compound max 1 µM, partner max 10 µM) | 0.346 | 0.822 | 0.644 | 0.422 | 0.447 | 0.498 | 0.638 | 0.671 | 0.261 | 0.486 | 0.789 | -0.035 |
| CCN(CCO)CCCOc1ccc2c(Nc3cc(CC(=O)Nc4cccc(F)c4)[nH]n3)ncnc2c1 [AZD2811] + C[C@@H]1COCCN1C2=NC(=NC(=C2)C3(CC3)[S@](=N)(=O)C)C4=C5C=CNC5=NC=C4 [AZD6738] (first compound max 1 µM, 7x7, partner max 10 µM) | 0.326 | 0.852 | 0.632 | 0.397 | 0.698 | 0.666 | 0.746 | 0.8 | 0.609 | 0.399 | 1 | 0.0033 |
| COc1cccc2c1C(=O)c1c(O)c3c(c(O)c1C2=O)C[C@@](O)(C(=O)CO)C[C@@H]3O[C@H]1C[C@H](N)[C@H](O)[C@H](C)O1 [Doxorubicin] + Cc1cc2ncnn2cc1Nc1ncc2c(n1)n(C1CCOCC1)c(=O)n2C [AZD7648] (first compound max 1 µM, 7x7, partner max 10 µM) | 0.823 | 0.888 | 0.87 | 0.197 | 0.587 | 0.593 | 0.952 | 0.478 | 0.711 | 0.945 | 0.693 | 0.0281 |
| COc1cccc(OCCCN)c1-c1cc(Nc2cnc(C#N)cn2)n[nH]1 [Prexasertib] + C=CCn1c(=O)c2cnc(Nc3ccc(N4CCN(C)CC4)cc3)nc2n1-c1cccc(C(C)(C)O)n1 [AZD1775] (first compound max 1 µM, partner max 1 µM) | 0.308 | 0.946 | 0.828 | 0.563 | 0.838 | 0.733 | 0.859 | 0.692 | 0.921 | 0.951 | 1 | 0.107 |
| CCc1c2c(nc3ccc(O)cc13)-c1cc3c(c(=O)n1C2)COC(=O)[C@]3(O)CC [SN-38] + O=C(c1cc(Cc2n[nH]c(=O)c3ccccc23)ccc1F)N1CCN(C(=O)C2CC2)CC1 [Olaparib] (first compound max 0.3 µM, 7x7, partner max 10 µM) | 0.38 | 1 | 0.55 | – | 0.637 | 0.669 | 0.784 | 0.333 | – | 0.762 | 0.783 | -0.0027 |
| CN(C)CCCOc1ccc(-c2ccc3ncc4c(c3c2)n(C2CCOCC2)c(=O)n4C)cn1 [AZD0156] + CCN(CCO)CCCOc1ccc2c(Nc3cc(CC(=O)Nc4cccc(F)c4)[nH]n3)ncnc2c1 [AZD2811] (first compound max 1 µM, 7x7, partner max 1 µM) | 0.146 | 0.75 | 0.161 | 0.131 | 0.137 | 0.22 | 0.4 | 0.742 | 0.062 | 0.22 | 0.973 | 0.0368 |
| CN(C)CCCOc1ccc(-c2ccc3ncc4c(c3c2)n(C2CCOCC2)c(=O)n4C)cn1 [AZD0156] + C=CCn1c(=O)c2cnc(Nc3ccc(N4CCN(C)CC4)cc3)nc2n1-c1cccc(C(C)(C)O)n1 [AZD1775] (first compound max 1 µM, partner max 1 µM) | 0.268 | 0.564 | 0.609 | 0.419 | 0.347 | 0.567 | 0.753 | 0.722 | 0.19 | 0.266 | 0.792 | 0.0013 |
| COc1cccc(OCCCN)c1-c1cc(Nc2cnc(C#N)cn2)n[nH]1 [Prexasertib] + Cc1cc2ncnn2cc1Nc1ncc2c(n1)n(C1CCOCC1)c(=O)n2C [AZD7648] (first compound max 1 µM, 7x7, partner max 10 µM) | 0.216 | 0.875 | 0.764 | 0.54 | 0.829 | 0.788 | 0.784 | 0.746 | 0.88 | 0.777 | 0.988 | 0.0515 |
| CN(C)CCCOc1ccc(-c2ccc3ncc4c(c3c2)n(C2CCOCC2)c(=O)n4C)cn1 [AZD0156] + C[C@@H]1COCCN1C2=NC(=NC(=C2)C3(CC3)[S@](=N)(=O)C)C4=C5C=CNC5=NC=C4 [AZD6738] (first compound max 1 µM, 7x7, partner max 10 µM) | 0.248 | 0.907 | 0.644 | 0.49 | 0.756 | 0.696 | 0.908 | 0.716 | 0.741 | 0.422 | 0.858 | -0.0059 |
| C=CCn1c(=O)c2cnc(Nc3ccc(N4CCN(C)CC4)cc3)nc2n1-c1cccc(C(C)(C)O)n1 [AZD1775] + C[C@@H]1COCCN1C2=NC(=NC(=C2)C3(CC3)[S@](=N)(=O)C)C4=C5C=CNC5=NC=C4 [AZD6738] (first compound max 1 µM, partner max 10 µM) | 0.403 | 0.907 | 0.892 | 0.487 | 0.782 | 0.746 | 0.883 | 0.838 | 0.849 | 0.596 | 0.97 | 0.0344 |
| COc1cccc(OCCCN)c1-c1cc(Nc2cnc(C#N)cn2)n[nH]1 [Prexasertib] + O=C(c1cc(Cc2n[nH]c(=O)c3ccccc23)ccc1F)N1CCN(C(=O)C2CC2)CC1 [Olaparib] (first compound max 1 µM, 7x7, partner max 10 µM) | 0.234 | 0.923 | 0.771 | 0.481 | 0.693 | 0.678 | 0.788 | 0.64 | 0.89 | 0.83 | 0.929 | 0.0208 |
| COc1nnc2ccc(N3CCC(c4ccc(OCCN5CCN(C)C(=O)[C@H]5C)cc4)CC3)nn12 [AZD5153] + C[C@@H]1COCCN1C2=NC(=NC(=C2)C3(CC3)[S@](=N)(=O)C)C4=C5C=CNC5=NC=C4 [AZD6738] (first compound max 1 µM, 7x7, partner max 10 µM) | 0.589 | 0.84 | 0.59 | 0.476 | 0.744 | 0.858 | 0.97 | – | 0.793 | 0.682 | 0.915 | – |
| Cc1c2c(nn1C)CSCc1cc(n(C)n1)CSc1cc(c3ccccc3c1)OCCCc1c(C(=O)O)n(C)c3c-2c(Cl)ccc13 [AZD5991] + C[C@@H]1COCCN1C2=NC(=NC(=C2)C3(CC3)[S@](=N)(=O)C)C4=C5C=CNC5=NC=C4 [AZD6738] (first compound max 1 µM, 7x7, partner max 10 µM) | 0.401 | 0.823 | 0.609 | 0.502 | 0.645 | 0.844 | 0.742 | – | 0.558 | 0.579 | 0.854 | – |
| Cn1cnc2c(F)c(Nc3ccc(Br)cc3Cl)c(C(=O)NOCCO)cc21 [Selumetinib] + C[C@@H]1COCCN1C2=NC(=NC(=C2)C3(CC3)[S@](=N)(=O)C)C4=C5C=CNC5=NC=C4 [AZD6738] (first compound max 10 µM, 7x7, partner max 10 µM) | 0.277 | 0.648 | 0.517 | 0.574 | 0.671 | 0.837 | 0.778 | – | 0.29 | 0.469 | 0.681 | – |
| COc1nnc2ccc(N3CCC(c4ccc(OCCN5CCN(C)C(=O)[C@H]5C)cc4)CC3)nn12 [AZD5153] + Cc1c2c(nn1C)CSCc1cc(n(C)n1)CSc1cc(c3ccccc3c1)OCCCc1c(C(=O)O)n(C)c3c-2c(Cl)ccc13 [AZD5991] (first compound max 1 µM, 7x7, partner max 1 µM) | 0.508 | 0.699 | 0.406 | 0.393 | 0.496 | 0.83 | 0.975 | – | 0.351 | 0.425 | 0.934 | – |
| COc1nnc2ccc(N3CCC(c4ccc(OCCN5CCN(C)C(=O)[C@H]5C)cc4)CC3)nn12 [AZD5153] + C=CCn1c(=O)c2cnc(Nc3ccc(N4CCN(C)CC4)cc3)nc2n1-c1cccc(C(C)(C)O)n1 [AZD1775] (first compound max 1 µM, partner max 1 µM) | 0.58 | 0.602 | 0.546 | 0.438 | 0.563 | 0.742 | 0.892 | – | 0.279 | 0.665 | 0.908 | – |
